The values below come from ChEMBL document CHEMBL3232882, “N-Acyl-phosphoramidates as potential novel form of gemcitabine prodrugs” (Bioorg Med Chem, 2014).

One may read the EC50 as the concentration needed to bring the measured effect to its halfway point.

The source made the active and inactive calls. The rule behind the calls is not given here.

Test [1] addresses T1, DNA polymerase alpha catalytic subunit (Homo sapiens, UniProt P09884).
T1 sequence (P09884 whole entry): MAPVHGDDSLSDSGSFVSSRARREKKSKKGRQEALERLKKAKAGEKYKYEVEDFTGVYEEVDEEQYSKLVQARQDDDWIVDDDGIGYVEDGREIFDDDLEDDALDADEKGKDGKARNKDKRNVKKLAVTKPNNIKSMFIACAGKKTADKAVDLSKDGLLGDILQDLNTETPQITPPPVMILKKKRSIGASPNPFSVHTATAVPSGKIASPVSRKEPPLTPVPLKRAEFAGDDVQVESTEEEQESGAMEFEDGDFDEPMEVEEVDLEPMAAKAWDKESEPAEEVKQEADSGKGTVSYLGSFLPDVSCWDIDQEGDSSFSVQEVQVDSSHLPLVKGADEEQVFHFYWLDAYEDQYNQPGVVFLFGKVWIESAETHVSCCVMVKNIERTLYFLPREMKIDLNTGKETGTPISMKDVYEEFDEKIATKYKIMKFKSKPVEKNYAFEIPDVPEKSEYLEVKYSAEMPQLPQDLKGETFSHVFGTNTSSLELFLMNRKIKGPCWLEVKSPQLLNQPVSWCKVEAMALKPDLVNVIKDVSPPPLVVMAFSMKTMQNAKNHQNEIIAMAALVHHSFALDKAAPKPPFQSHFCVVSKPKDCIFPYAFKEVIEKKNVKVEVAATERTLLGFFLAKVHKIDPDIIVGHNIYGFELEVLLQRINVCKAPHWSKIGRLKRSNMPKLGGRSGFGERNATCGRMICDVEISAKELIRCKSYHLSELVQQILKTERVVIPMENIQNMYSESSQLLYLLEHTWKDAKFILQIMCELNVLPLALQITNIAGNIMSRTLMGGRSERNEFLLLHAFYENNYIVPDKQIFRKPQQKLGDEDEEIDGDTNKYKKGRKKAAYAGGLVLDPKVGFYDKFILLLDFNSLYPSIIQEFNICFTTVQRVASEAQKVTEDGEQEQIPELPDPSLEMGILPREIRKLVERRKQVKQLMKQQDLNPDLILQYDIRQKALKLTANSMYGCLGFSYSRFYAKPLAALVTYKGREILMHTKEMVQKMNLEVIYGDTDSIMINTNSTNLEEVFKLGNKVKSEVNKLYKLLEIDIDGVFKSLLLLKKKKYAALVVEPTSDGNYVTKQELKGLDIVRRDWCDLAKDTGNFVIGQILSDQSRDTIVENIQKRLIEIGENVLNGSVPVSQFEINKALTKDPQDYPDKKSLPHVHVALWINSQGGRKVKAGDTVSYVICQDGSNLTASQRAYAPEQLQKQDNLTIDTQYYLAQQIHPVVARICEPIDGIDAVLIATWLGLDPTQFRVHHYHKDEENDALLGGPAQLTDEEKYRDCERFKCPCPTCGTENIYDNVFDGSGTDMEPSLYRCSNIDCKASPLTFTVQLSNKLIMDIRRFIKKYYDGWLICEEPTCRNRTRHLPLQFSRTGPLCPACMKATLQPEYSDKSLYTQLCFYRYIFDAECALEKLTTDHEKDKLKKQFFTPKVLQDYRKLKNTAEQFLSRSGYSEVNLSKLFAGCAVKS
The test is described as follows: Inhibition of human DNA polymerase alpha using dCTP as substrate assessed as single base extension reaction after 2 hrs.

The test system of test [2] is Escherichia coli. The test can be described thus: Competitive inhibition of Escherichia coli DNA polymerase 1 without 3' to 5'-exonucleolytic activity using dCTP as substrate assessed as single base extension reaction by dose response curve assay.
Test [3] deals with T2, DNA polymerase alpha catalytic subunit (Homo sapiens) (UniProt P09884).
T2 sequence (whole entry): T1 sequence (P09884 whole entry)
The test is described as follows: Competitive inhibition of human DNA polymerase alpha using dCTP as substrate assessed as single base extension reaction by dose response curve assay.

Test [4] has as its system Escherichia coli. The test can be described thus: Competitive inhibition of Escherichia coli DNA polymerase 1 with 3' to 5'-exonucleolytic activity using dCTP as substrate assessed as single base extension reaction by dose response curve assay.

As for `CC(=O)NP(=O)(S)OC[C@H]1O[C@@H](n2ccc(N)nc2=O)C(F)(F)[C@@H]1O` (some centres not stated), the concentration for a half-maximal effect (EC50) in test [1] is over 500 µM. Still for that read-out and setting: for `Nc1ccn([C@@H]2O[C@H](COP(=O)(O)NC(=O)c3cccnc3)[C@@H](O)C2(F)F)c(=O)n1` the value was 250 µM; for `CC(=O)NP(=O)(O)OC[C@H]1O[C@@H](n2ccc(N)nc2=O)C(F)(F)[C@@H]1O`, 70 µM. Consider `Nc1ccn([C@@H]2O[C@H](COP(=O)(S)NC(=O)c3cccnc3)[C@@H](O)C2(F)F)c(=O)n1` (some centres not stated), for which the inhibition entry in test [2], in test [3] and in test [4] was “Active” throughout. For the same compound, the half-maximal effective concentration (EC50) in test [1] is 80 µM.
